SMILES strings stand for the structures. ≈ marks a conversion by molar mass, not a printed value.

Assay [1] has as its system guinea pig tracheal chain preparations. The assay is described as follows: effect on spontaneous tone of guinea pig tracheal chain preparations (β-stimulant direct relaxant effect on airway smooth muscle). The class given is cell-based. An excerpt:
(§1) Two in vitro test systems used for determining selective β-stimulant activity are: (1) effect on spontaneous tone of guinea pig tracheal chain preparations as a measure of β-stimulant (direct relaxant) effect on airway smooth muscle, and (2) effect on rate of spontaneously beating right atria of the guinea pig as a measure of β-stimulant effect on cardiac muscle.

Assay [2] deals with guinea pig right atria. The assay is described as follows: effect on rate of spontaneously beating right atria of the guinea pig (β-stimulant effect on cardiac muscle). The class given is cell-based. The conditions noted are these: Cavia porcellus; in vitro, at a dose of 30.0 mcg/ml; read-out: increase in the rate of contraction of guinea pig right atria.
Source text: as §1

Regarding `CC(C)NCC(O)c1ccc(O)c(O)c1` (stereo not drawn) [d,1-isoproterenol, reference compound], the absolute separation ratio in assay [1] (tracheal versus right atria activity, similar in vitro preparations) was found to be 0.5. Take `CC(C)(C)NCC(O)c1ccc(O)c(CS(C)(=O)=O)n1` (stereo not drawn) [α-(t-butylaminomethyl)-5-hydroxy-6-methanesulfonylmethyl-2-pyridinemethanol]: in assay [1] (Cavia porcellus, in vitro, spontaneous tone, read-out: ED50, relaxes the spontaneous tone of guinea pig tracheal ring preparation), the EC50 worked out at 8.8 ng/mL (≈ 0.0291 µM). In addition, the activation at 30 µg/mL in assay [2] was 13%.

These data come from patent publication US3952101A, “α-Amino methyl-5-hydroxy-2-pyridinemethanols” (SmithKline Corporation, priority 1975, dated 1976).
